Values quoted from earlier work in patent US20110144198A1, “BREAST CANCER PROGNOSTICS” (ATLAS ANTIBODIES AB, priority 2008, published 2011).

What was measured:
[1] = system: ERα positive (ERα+) patients
ERα+/PR− tumors = conditions: follow-up period of 6 years

Row | Structure (SMILES) | fraction of ERα+ patients that do not respond to treatment [1] | recurrence rate compared to patients treated with tamoxifen (ERα+/PR− tumors)
1 | CC/C(=C(\c1ccccc1)c1ccc(OCCN(C)C)cc1)c1ccccc1 [tamoxifen] | 30-40% | –
2 | CC(C)(C#N)c1cc(Cn2cncn2)cc(C(C)(C)C#N)c1 [anastrozole] | – | halved
